According to the CheMixHub ionic liquid set:

Test: xn = mol fraction of the nth substance listed

O=C([O-])c1ccccc1.[Na+] + CCOS(=O)(=O)[O-].CC[n+]1ccn(C)c1 + O
viscosity [mPa·s], 101.3 kPa
Settings	293.15 K	298.15 K	303.15 K	308.15 K	313.15 K
x1 = 0.0001784, x2 = 0	1.009	0.897	0.803	0.727	0.651
x1 = 0.0001804, x2 = 0.001795	1.079	0.966	0.851	0.757	0.685
x1 = 0.0001842, x2 = 0.002697	1.114	0.994	0.883	0.795	0.716
x1 = 0.0001899, x2 = 0.003589	1.144	1.024	0.907	0.819	0.735
x1 = 0.0005403, x2 = 0	1.014	0.903	0.809	0.733	0.657
x1 = 0.0005539, x2 = 0.001794	1.086	0.973	0.858	0.764	0.692
x1 = 0.0005579, x2 = 0.002696	1.121	1.001	0.89	0.802	0.723
x1 = 0.0005619, x2 = 0.003587	1.151	1.032	0.915	0.827	0.743
x1 = 0.0009002, x2 = 0	1.019	0.908	0.814	0.738	0.662
x1 = 0.0009234, x2 = 0.001794	1.092	0.979	0.864	0.77	0.698
x1 = 0.0009314, x2 = 0.002695	1.128	1.008	0.897	0.809	0.73
x1 = 0.0009412, x2 = 0.003586	1.158	1.039	0.922	0.834	0.75
x1 = 0.001258, x2 = 0	1.024	0.913	0.819	0.743	0.667
x1 = 0.001287, x2 = 0.001793	1.098	0.984	0.869	0.776	0.703
x1 = 0.001299, x2 = 0.002694	1.134	1.014	0.903	0.815	0.737
x1 = 0.001311, x2 = 0.003585	1.165	1.047	0.929	0.841	0.757
x1 = 0.001619, x2 = 0	1.029	0.918	0.824	0.748	0.672
x1 = 0.001651, x2 = 0.001792	1.103	0.99	0.875	0.781	0.709
x1 = 0.001674, x2 = 0.002693	1.14	1.02	0.91	0.821	0.742
x1 = 0.001689, x2 = 0.003583	1.172	1.053	0.936	0.848	0.764
x1 = 0.001978, x2 = 0	1.034	0.923	0.829	0.753	0.677
x1 = 0.002025, x2 = 0.001792	1.108	0.997	0.881	0.786	0.715
x1 = 0.002045, x2 = 0.002692	1.146	1.027	0.915	0.827	0.748
x1 = 0.002068, x2 = 0.003582	1.178	1.059	0.943	0.854	0.77

CCC(C)O (configuration not stated) + CC[n+]1ccn(C)c1.N#C[N-]C#N
100 kPa, x2 = 0
Settings	viscosity [mPa·s]
298.15 K	3.01
303.15 K	2.55
308.15 K	2.21
313.15 K	1.97
318.15 K	1.79
323.15 K	1.63

CCC(C)O (configuration not stated) + CC[n+]1ccn(C)c1.O=S(=O)([O-])C(F)(F)F
Settings	viscosity [mPa·s]
308.15 K, 101 kPa, x2 = 0	2
